Data as given in patent US9000028B2, “Indole and indazole compounds as an inhibitor of cellular necrosis” (LG Life Sciences Ltd., priority 2007, dated 2015).

The compounds below were run on primary hepatocytes isolated from rats (assay: Hepatocyte protective effect against substances deriving hepatocyte toxicity (WST-1 viability)). Details: Rattus norvegicus, Hepatocyte, doxorubicin, 24-48 h, read-out: EC50, cell protective effects against doxorubicin in hepatocytes.
Type: cell-based
Outline: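 Hepatocytes from two-step collagenase perfusion (≥90% viable) seeded on collagen, pretreated 30 min with compound (5-step 2- or 3-fold dilutions from 30, 10 or 1 uM; 0.2% DMSO), then exposed to hepatotoxic agents. WST-1 absorbance at 440 nm after 24-48 h; EC50 = concentration giving 50% of maximal protection.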
In the case of `O=S1(=O)CCN(Cc2cc(NCC3CCOCC3)c3[nH]c(-c4ccccc4)c(Br)c3c2)CC1` [Example 74, (Tetrahydropyran-4-ylmethyl)-(3-bromo-5-(1,1-dioxo-thiomorpholin-4-yl)methyl-2-phenyl-1H-indol-7-yl)-amine], the EC50 is reported as 350 nM.
For `O=C(O)[C@@H]1CCCN1C(=O)c1cc(NC2CCCC2)c2[nH]c(-c3ccccc3)cc2c1` [Example 117, (2S)-1-(7-cyclopentylamino-2-phenyl-1H-indole-5-carbonyl)-pyrrolidine-2-carboxylic acid], the EC50 was 260 nM.
`CC(=O)N1CCC(Nc2cc(C)cc3cc(-c4ccccn4)[nH]c23)CC1` [Example 12, 1-[4-[(5-Methyl-2-(pyridin-2-yl)-1H-indol-7-yl)-amino]piperidin-1-yl]ethanone] gave an EC50 of 400 nM.
In the case of `CCOc1cc(NC2CCCC2)c2[nH]c(-c3ccccn3)cc2c1` [Example 10, Cyclopentyl-[5-ethoxy-2-(pyridin-2-yl)-1H-indol-7-yl]-amine], the EC50 is reported as 200 nM.
With `O=S1(=O)CCN(Cc2cc(NC3CCOCC3)c3[nH]cc(-c4ccccc4)c3c2)CC1` [Example 161, (Tetrahydropyran-4-yl)-[5-(1,1-dioxo-thiomorpholin-4-yl)methyl-3-phenyl-1H-indol-7-yl)-amine] the EC50 was 360 nM.
In the case of `O=S1(=O)CCN(Cc2cc(NC3CCOCC3)c3[nH]c(-c4ccccc4)cc3c2)CC1` [Example 36, (Tetrahydropyran-4-yl)[2-phenyl-5-(1,1-dioxo-thiomorpholin-4-yl)methyl-1H-indol-7-yl]amine], the EC50 is reported as 63 nM.
Work on `O=C1CN(CCc2cccc(-c3cc4cc(Cl)cc(NC5CCOCC5)c4[nH]3)c2)CCN1` [Example 151, {5-Chloro-2-[3-(2-oxo-piperazin-4-yl)ethylphenyl]-1H-indol-7-yl}-(tetrahydropyran-4-yl)-amine] yielded an EC50 greater than 2000 nM.
Compound `Clc1cc(NC2CCCC2)c2[nH]c(-c3ccccc3)c(CN3CCOCC3)c2c1` [Example 67, Cyclopentyl-(5-chloro-3-(morpholin-4-yl)methyl-2-phenyl-1H-indol-7-yl)-amine] has an EC50 of less than 130 nM.
In the case of `COC(=O)Cc1ccc(-c2cc3cc(Cl)cc(NC4CCOCC4)c3[nH]2)cc1` [Example 146, 2-{4-[5-Chloro-7-(tetrahydropyran-4-yl)amino-1H-indol-2-yl]phenyl}-acetic acid methyl ester], the EC50 is reported as 330 nM.
`Cc1cc(NC2CCCCC2)c2[nH]c(-c3ccccn3)cc2c1` [Example 11, Cyclohexyl-[5-methyl-2-(pyridin-2-yl)-1H-indol-7-yl]-amine] was tested, and the EC50 was 100 nM.
Work on `O=S1(=O)CCN(Cc2cc(N(C3CCOCC3)C3CCOCC3)c3[nH]c(-c4ccccc4)cc3c2)CC1` [Example 58, Di(tetrahydropyran-4-yl)-[2-phenyl-5-(1,1-dioxo-thiomorpholin-4-yl)methyl-1H-indol-7-yl]amine] yielded an EC50 of 260 nM.
Work on `CNC1CCC(Nc2cc(Cl)cc3cc(-c4ccccc4)[nH]c23)CC1` (stereo not shown) [Example 101, N-(5-chloro-2-phenyl-1H-indol-7-yl)-N′-methyl-cyclohexane-1,4-diamine] yielded an EC50 of 80 nM.
With `c1cc(NC2CCCC2)c2[nH]ncc2c1` [Example 153, Cyclopentyl-(1H-indazol-7-yl)-amine] the EC50 was 2100 nM.
In the case of `CC(C)(C)OC(=O)Nc1ccc(-c2cc3cc(Cl)cc(NC4CCCC4)c3[nH]2)cc1` [Example 78, t-Butyl N-[4-[5-chloro-7-(cyclopentylamino)-1H-indol-2-yl]phenyl]carbamate], the EC50 is reported as 210 nM.
In the case of `Clc1cc(NC2CCNCC2)c2[nH]c(-c3ccccc3)cc2c1` [Example 93, (5-Chloro-2-phenyl-1H-indol-7-yl)-piperidin-4-yl-amine], the EC50 is reported as 160 nM.
`CC(=O)N1CCN(Cc2cccc(-c3cc4cc(Cl)cc(NC5CCOCC5)c4[nH]3)c2)CC1` [Example 150, 1-{4-[3-(5-Chloro-7-tetrahydropyran-4-ylamino-1H-indol-2-yl)-benzyl]-piperazin-1-yl}-ethanone] was tested, and the EC50 was 160 nM.
`OCc1ccc(-c2cc3cc(Cl)cc(NC4CCCC4)c3[nH]2)cc1` [Example 136, [4-(5-Chloro-7-cyclopentylamino-1H-indol-2-yl)-phenyl]-methanol] was tested, and the EC50 was 50 nM.
In the case of `O=S1(=O)CCN(Cc2cc(N(CC3CCOCC3)CC3CCOCC3)c3[nH]c(-c4ccccc4)cc3c2)CC1` [Example 57, Di(tetrahydropyran-4-ylmethyl)-[2-phenyl-5-(1,1-dioxo-thiomorpholin-4-yl)methyl-1H-indol-7-yl]amine], the EC50 is reported as 270 nM.
For `Fc1cc(NC2CCN(C3CCOCC3)CC2)c2[nH]c(-c3ccccc3)cc2c1` [Example 61, [1-(Tetrahydropyran-4-yl)piperidin-4-yl]-(5-fluoro-2-phenyl-1H-indol-7-yl)amine], the EC50 was 260 nM.
In the case of `O=C(O)c1cccc(-c2cc3cc(Cl)cc(NC4CCCC4)c3[nH]2)c1` [Example 124, 3-(7-Cyclopentylamino-5-chloro-1H-indol-2-yl)-benzoic acid], the EC50 is reported as 150 nM.
In the case of `CC(=O)Nc1ccc(-c2cc3cc(N4CCS(=O)(=O)CC4)cc(N(C4CCCC4)C4CCCC4)c3[nH]2)cc1` [Example 86, Dicyclopentyl-{5-(1,1-dioxo-thiomorpholin-4-yl)-2-[4-(acetyl)aminophenyl]-1H-indol-7-yl}-amine], the EC50 is reported as 1440 nM.
Compound `CC(=O)Nc1ccc(-c2cc3cc(N4CCS(=O)(=O)CC4)cc(NC4CCOCC4)c3[nH]2)cc1` [Example 89, (Tetrahydropyran-4-yl)-{5-(1,1-dioxo-thiomorpholin-4-yl)-2-[4-(acetyl)aminophenyl]-1H-indol-7-yl}-amine] has an EC50 of 300 nM.
In the case of `COC(=O)c1ccc(-c2cc3cc(Cl)cc(NC4CCCC4)c3[nH]2)cc1` [Example 142, 4-(5-Chloro-7-cyclopentylamino-1H-indol-2-yl)benzoic acid methyl ester], the EC50 is reported as 50 nM.
For `Clc1cc(NCC2CCOCC2)c2[nH]cc(-c3ccccc3)c2c1` [Example 81, (Tetrahydropyran-4-yl)methyl-(5-chloro-3-phenyl-1H-indol-7-yl)-amine], the EC50 was 110 nM.
For `CC(=O)Nc1ccc(-c2cc3cc(N4CCS(=O)(=O)CC4)cc(NC(C4CCOCC4)C4CCOCC4)c3[nH]2)cc1` [Example 88, Di(tetrahydropyran-4-yl)methyl-{5-(1,1-dioxo-thiomorpholin-4-yl)-2-[4-(acetyl)aminophenyl]-1H-indol-7-yl}-amine], the EC50 was greater than 2000 nM.
Compound `OCc1cc(NC2CCCC2)c2[nH]c(-c3ccccc3)cc2c1` [Example 29, Cyclopentyl-[5-hydroxymethyl-2-phenyl-1H-indol-7-yl]-amine] has an EC50 of 70 nM.
With `OCc1cccc(-c2cc3cc(Cl)cc(NC4CCCC4)c3[nH]2)c1` [Example 125, [3-(5-Chloro-7-cyclopentylamino-1H-indol-2-yl)-phenyl]-methanol] the EC50 was 111 nM.
For `CN(C)c1cc(Cl)cc2cc(-c3ccccc3)n(C)c12` [Example 65, Dimethyl-(5-chloro-1-methyl-2-phenyl-1H-indol-7-yl)amine], the EC50 was 600 nM.
`OCc1ccccc1-c1cc2cc(Cl)cc(NC3CCCC3)c2[nH]1` [Example 133, [2-(5-Chloro-7-cyclopentylamino-1H-indol-2-yl)-phenyl]-methanol] was tested, and the EC50 was 150 nM.
Compound `O=C(O)c1cc(NC2CCCC2)c2[nH]c(-c3ccccc3)cc2c1` [Example 30, 7-(Cyclopentyl)amino-2-phenyl-1H-indole-5-carboxylic acid] has an EC50 of 140 nM.
With `Cc1cc(NC2CCOCC2)c2[nH]ncc2c1` [Example 156, (5-Methyl-1H-indazol-7-yl)-(tetrahydropyran-4-yl)-amine] the EC50 was greater than 10000 nM.
Compound `Cc1cc(NC(=O)Nc2ccccc2)c2[nH]c(-c3ccccn3)cc2c1` [Example 24, 1-Phenyl-3-[5-methyl-2-(pyridin-2-yl)-1H-indol-7-yl]-urea] has an EC50 of 900 nM.
Compound `O=C(O)Cc1cc(NC2CCS(=O)(=O)CC2)c2[nH]c(-c3ccccc3)cc2c1` [Example 35, 2-[2-Phenyl-7-(1,1-dioxo-tetrahydro-thiopyran-4-yl)amino-1H-indol-5-yl]-acetic acid] has an EC50 of 630 nM.
With `O=S1(=O)CCC(N2CCC(Nc3cc(F)cc4cc(-c5ccccc5)[nH]c34)CC2)CC1` [Example 99, (5-Fluoro-2-phenyl-1H-indol-7-yl)-[1-(1,1-dioxo-tetrahydrothiopyran-4-yl)-piperidin-4-yl]-amine] the EC50 was 200 nM.
Compound `O=C(O)Cc1cc(NC2CCOCC2)c2[nH]c(-c3ccccc3)cc2c1` [Example 34, 2-[2-Phenyl-7-(tetrahydropyran-4-yl)amino-1H-indol-5-yl]-acetic acid] has an EC50 greater than 2000 nM.
Work on `Clc1cc(Nc2ccccn2)c2[nH]c(-c3ccccc3)cc2c1` [Example 113, (5-Chloro-2-phenyl-1H-indol-7-yl)-pyridin-2-yl-amine] yielded an EC50 of 350 nM.

Same assay, conditions: doxorubicin; rat primary hepatocytes; 24-48 h; read-out: EC50, cell protective effects against doxorubicin in hepatocytes
Compound `COC(=O)Cc1cccc(-c2cc3cc(Cl)cc(NC4CCOCC4)c3[nH]2)c1` [Example 132] has an EC50 of 430 nM.

What follows are compounds tested on cardiac cells (H9C2, white rat cardiomyocyte) (assay: Protective effect when tBHP was treated on cardiac cells (SRB method)). Details: tBHP 400 uM, 2 h.
Type: cell-based
Protocol: In order to determine the protective effect on pancreatic cells, Linm5F cells, a sort of the beta cells, were distributed into the 96-well plate in the amount of 2×10^4 cells/well, and incubated for 24 h. The Example compounds were serially diluted by 3-fold to the final concentration of 30, 10, 3, 1, 0.3, 0.1 uM, by which each well was treated for 1 h. Cells were treated with tBHP at the final concentration of 400 uM, and further incubated for 5 h. Protective effects were determined using SRB (Sulforhodamine B Protein) method in which total amount of cellular protein is stained. Briefly, cells were incubated for 5 h, 50 uL of 4% formaldehyde solution was added to each well to fix the cells, and stored for about 30 min at room temperature. After discarding the media, each well was washed with distilled water 2-3 times, and the plate was dried in an oven at 50° C. 50 uL of SRB solution was added to each well, and placed for about 30 min at room temperature. After removing SRB solution, the plate was washed with 1% acetic acid solution 2-3 times. After drying the plate in an oven at 50° C., 100 uL of 10 mM Tris was added to elute SRB which was staining the intracellular protein.
In order to assess the protective effect on cardiac cells, H9C2 cells were distributed in the amount of 1.5×10^4 cells/well, and incubated for 24 h. The Example compounds were serially diluted by 3-fold to the final concentration of 30, 10, 3, 1, 0.3, 0.1 uM, by which each well was treated for 45 min. Cells were treated with tBHP at the final concentration of 400 uM, and incubated for 2 h. Protective effect of each compound was determined using the same SRB method as in Linm5F of above mentioned 2).
For `O=S1(=O)CCN(Cc2cc(NCC3CCOCC3)c3[nH]c(-c4ccccc4)c(Br)c3c2)CC1` [Example 74, (Tetrahydropyran-4-ylmethyl)-(3-bromo-5-(1,1-dioxo-thiomorpholin-4-yl)methyl-2-phenyl-1H-indol-7-yl)-amine], the EC50 was no more than 200 nM.
In the case of `O=C(O)[C@@H]1CCCN1C(=O)c1cc(NC2CCCC2)c2[nH]c(-c3ccccc3)cc2c1` [Example 117, (2S)-1-(7-cyclopentylamino-2-phenyl-1H-indole-5-carbonyl)-pyrrolidine-2-carboxylic acid], the EC50 is reported as no more than 200 nM.
Compound `CC(=O)Nc1ccc(-c2cc3cc(N4CCS(=O)(=O)CC4)cc(N(C4CCCC4)C4CCCC4)c3[nH]2)cc1` [Example 86, Dicyclopentyl-{5-(1,1-dioxo-thiomorpholin-4-yl)-2-[4-(acetyl)aminophenyl]-1H-indol-7-yl}-amine] has an EC50 of 500 nM.
